Literature values in patent US20250190808A1, “DEVICE AND METHOD FOR IM[…] TR[…] NETWORK FOR T[…] SEQUENCE, AND TRAINING DEVICE AND METHOD USING SAME” (LG MANAGEMENT DEVELOPMENT INSTITUTE CO., LTD., priority 2022, published 2025).
Where two headings read alike, the source gives them in different places.

Key:
MHC TYPE A*0101 = conditions: read-out: MHC BINDING (IC50)
MHC TYPE A*0204 = conditions: read-out: MHC BINDING (IC50)
MHC TYPE B*0101 = conditions: read-out: MHC BINDING (IC50)
MHC TYPE A*0201 = MHC TYPE A*0201 (Homo sapiens, UniProt P04439, D140Y/D185E/D98H/E176V/E277Q/G131W/G231S/I119V/I121R/I166T/I218V/L300P/L318F/N151K/N90K/P208A/P217A/Q86G/Q94H/R138H/R169H/T345S); conditions: read-out: MHC BINDING (IC50)

In the case of GQIVTMFEA, the IC50 (MHC TYPE A*0101) is given as less than 0.1 µM and the “ACTIVATION OF T-CELL” value (T-cell; MHC type A*0101) is given as “Negative”.

For MFEALPHII, the IC50 (MHC TYPE A*0204) is listed as 12 µM.

For MGQIVTMFE, the IC50 (MHC TYPE B*0101) is listed as greater than 20 µM, the “ACTIVATION OF T-CELL” value (T-cell; MHC type A*0201) is listed as “Positive” and the IC50 (MHC TYPE A*0201) is listed as 0.021 µM.
